From patent US9765115B2, “Inhibitors of metastasis, methods of generating such inhibitors and their therapeutic applications” (Board of Supervisors of Louisiana State University acting …, priority 2011, dated 2017)

Columns and labels:
PC-3-CTR-wt cells = experiment: Matrigel in vitro invasion assay; type: cell-based; settings: 50 nM CT, 48 h
Description: Invasion experiments were conducted in Matrigel™ invasion chambers as previously described (Sabbisetti et al., 2005).
CT increases invasiveness, and even induces an invasive phenotype in non-invasive prostate cancer cells. The role of PDZ-binding motif in CT-stimulated invasion was examined. FIG. 2C depicts CTR-C PDZ-binding motif mutation and effects on cell invasion. PC-3V, PC-3 CTRwt and PC-3 CTRΔESS cells were added to upper insert of invasion chambers with or without 50 nM CT, and cells that passed through the Matrigel™ barrier were counted after 48 h. The results are expressed as mean number of invaded cells per 400× field ±SEM (n=6; *p<0.05 (PC-3V v PC-3CTR-wt); $ p<0.05 (PC-3CTR-wt v PC-3CTRΔESS); $$-p<0.05 (PC-3CTRwt+CT v PC-3CTRΔESS+CT) (one-way ANOVA and Newman-Keul's test)). Expression of CTRwt in PC-3 cells increased invasion by 2.5-fold (FIG. 2C).
(§1) As shown above, CTR binds to ZO-1 through PDZ interaction (i.e. PDZ ligand on C-tail of CTR binds to the PDZ domain of ZO-1). To attenuate this binding, ZO-1 was saturated with a small C-terminal peptide of CTR sequence containing the PDZ-binding motif. Since ZO-1 is an intracellular membrane protein, the interfering peptide was delivered inside the plasma membrane. It has been shown that trans-activating transcriptional activator (TAT) protein (86-mer polypeptide) from HIV-1 enters mammalian cells when added to the surrounding media (Frankel et al., 1988; Green et al., 1989). Certain small regions of such proteins (10-16-mers) called protein transduction domains (PTDs), also efficiently traverse biological membranes (Elliott et al., 1997). Therefore, a fusion peptide Pep 1 was synthesized of TAT-peptide sequences of HIV virus and CTR-C(N-[…]-C (SEQ ID NO:2), CTR-C sequence underlined). The first experiment was to see if Pep I binds to ZO-1 in reversible fashion. For this, amino acid Y in Pep I was labeled with ^125I, and the binding with ZO-1 analyzed in the presence/absence of unlabeled Pep I (1000×; 20 μM). PC-3CTR-ZO-1-MYC cells were first incubated with unlabeled Pep I or control peptide (20 μM) for 5 min. The cells were then incubated with ^125I-pep I or C for 25 min. The cells were then washed in IP buffer, treated with DSP, and lysed. ZO-1 IPs were obtained, fractionated on SDS-PAGE, and autoradiographed. […] Next, whether Pep I competes with CTR for ZO-1 binding was tested. For this, PC-3-CTR-wt cells were treated with CT (50 nM) and or Pep I (50 μM) for 15 min. The CTR IPs were then immunoblotted and probed for ZO-1 immunoreactivity. […] Next, the biological impact of this phenomenon was examined by testing the effect of Pep I on CTR-stimulated invasion.
The binding of ZO-1 and CTR can be attenuated by saturating ZO-1 with a small C-terminal peptide of CTR sequence containing the PDZ ligand. Since ZO-1 is an intracellular membrane protein, the interfering peptide must penetrate plasma membrane to interact with ZO-1. As discussed above, fusion peptides of small TAT peptides (12-mer) and six (Pep I) or eight amino acids (Pep II) of C-terminal of CTR were synthesized. Control peptides were TAT peptides (12-mer) containing random amino acid sequence of equivalent size (6-mer). […] Thus, these two peptides (sequences given below) could be used therapeutically to attenuate or inhibit metastasis in cancerous cells.

CTR-ZO-1 interaction = molecular target: T1, CTR-ZO-1 interaction (Homo sapiens, UniProt P30988, E471A/S472A/S473A); experiment: CTR-ZO-1 co-immunoprecipitation; type: cell-based; settings: all CT concentrations
T1 construct: PCR generated full length CTRwt and CTRΔESS cDNAs were cloned directionally into pcDNA3.1 mammalian expression vector; FLAG (N); expressed in transfected cells; host or cells: PC-31 / PC-3 cells stably expressing FLAG-CTRwt; ZO-1 is the cells' own
T1 sequence (P30988 with tags, fused parts or gaps): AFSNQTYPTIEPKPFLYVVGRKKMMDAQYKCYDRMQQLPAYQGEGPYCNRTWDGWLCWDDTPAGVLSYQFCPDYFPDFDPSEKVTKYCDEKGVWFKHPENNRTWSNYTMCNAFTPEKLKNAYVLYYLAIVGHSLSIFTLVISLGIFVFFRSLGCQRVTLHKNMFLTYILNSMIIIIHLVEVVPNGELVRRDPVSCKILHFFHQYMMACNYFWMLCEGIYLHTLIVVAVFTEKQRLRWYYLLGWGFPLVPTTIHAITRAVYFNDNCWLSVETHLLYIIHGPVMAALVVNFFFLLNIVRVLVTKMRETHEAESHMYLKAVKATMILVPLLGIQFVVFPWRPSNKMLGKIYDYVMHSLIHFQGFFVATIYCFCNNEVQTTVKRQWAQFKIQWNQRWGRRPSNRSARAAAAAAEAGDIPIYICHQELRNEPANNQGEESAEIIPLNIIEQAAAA
Description: Serum-starved PC-31-V, PC-31-CTRwt or PC-31-CTRΔESS cells (2×10^6 per 100 mm dish) were stimulated with or without 50 nM CT for 3 min, washed, and lysed in the IP buffer as previously described (von Zastrow et al., 1994). CTR in normalized lysate proteins was immunoprecipitated with anti-FLAG EZ-view beads (Sigma Chemical Co., St. Louis, Mo.), and eluted with FLAG peptide (600 μg/ml in PBS). CTR immunoprecipitates were processed for ZO-1 immunoblotting. To control for protein loading and transfer, the blots were stripped and reprobed with immunoprecipitating antibody.
PC-31 cells stably expressing either FLAG-CTRwt or FLAGCTRΔESS were treated with or without CT for 3 min. The analysis of FLAG-CTR IPs confirmed that only FLAG-CTRwt, but not FLAG-CTRΔESS, co-precipitated ZO-1 (FIG. 3B). […] The effect of multiple CT concentrations on CTR-ZO-1 co-precipitation was tested in PC-3 cells. […] However, co-precipitation of ZO-1 by CTRwt was strong in PC-3 cells stimulated with 10 nM CT, and was even stronger in the cells receiving 100 nM CT.
as §1

Substance: calcitonin [CT]
- additional increase in invasion (PC-3-CTR-wt cells): 2.5 fold
- co-precipitation of ZO-1 by CTRΔESS (CTR-ZO-1 interaction): not co-precipitated
